Common to all, as to assay type: in vivo, rice
The test system of data set [1] is homozygous A205V (RTC1) mutant line (P1003A205V). The data set is described as follows: 16-T7 log sprayer trial, Imazethapyr, homozygous A205V line. The following applies: single application, all tested rates 8× (48 oz/acre) and lower.
Data set [2] has as its system G654E (RTC2) homozygous line. The experiment in a line: 16-T7 log sprayer trial, Imazethapyr, homozygous G654E line. The following applies: single application, half-step log sprayer, rates 16× to 1/128×.
The subject of another data set is G654E/A205V hybrids. The data set is described as follows: 16-T7 log sprayer trial, Imazethapyr, G654E/A205V hybrids. The following applies: single application, half-step log sprayer, rates 16× to 1/128×; either hybrid.
Another data set relates to A205V-G654E hybrids. The data set is described as follows: 15SA-T9 IMI conversion efficacy trial. The following applies: 2 applications (2 leaf and preflood). The protocol:
2 leaf and preflood application of IMI herbicide on materials converted with RiceTec IMI traits and controls. All males included RTC1 (A205V) in their genome. Females with RTC2 (G654E) were not included due to limited seed numbers. Females were tested separately in 15GH-T8 using potted plant replications.

The subject of data set [3] is heterozygous A205V hybrids. The settings on record: 2 leaf and preflood application. From the text: Trial: 2 leaf and preflood application of Imazethapyr or Kifix™ (imazapic/imazapir) herbicide on materials converted with RiceTec IMI traits and commercial IMI control.
For data set [4], the system named is RT IMI hybrids (LF2-RTC2/LM1-RTC1, LF1-RTC2/LM1-RTC1, LF3-RTC2\LM4-RTC1). The data set is described as follows: 16GH-T7 greenhouse Imazamox trial, injury in RT IMI hybrids. The following applies: Imazamox 0.5×, 1×, 2× or 4× at about preflood stage, alone or 2 weeks after 1× Imazethapyr, any treatment. The source says: (§1) FIG. 3A to FIG. 3I illustrate the results of Example 1: FIG. 3A control; FIG. 3B 0.5× Imazamox; FIG. 3C 1× Imazamox; FIG. 3D 2× Imazamox; FIG. 3E 4× Imazamox; FIG. 3F 1× Imazethapyr+0.5× Imazamox; FIG. 3G 1× Imazethapyr+1× Imazamox; FIG. 3H 1× Imazethapyr+2× Imazamox; FIG. 3I 1× Imazethapyr+4× Imazamox; Pots L to R: LF2-RTC2/LM1-RTC1, LF1-RTC2/LM1-RTC1, LF3-RTC2\LM4-RTC1, mutated line P1003A205V, mutated line R0146G654E, sensitive control commercial variety Cypress, commercial hybrid CLXL745.
(§2) Trial consisted of 2 treatment regimens with Imazamox applications at approximately the preflood stage with rates of 0.5×, 1×, 2×, or 4×, either alone or 2 weeks following application of 1× Imazethapyr.
(§3) FIG. 4 Representative Pots 4 Weeks Post Application of Imazamox.

Data set [5] deals with single trait mutant lines (P1003A205V, R0146G654E). The data set is described as follows: 16GH-T7 greenhouse Imazamox trial, injury in single trait mutant lines. The settings on record: Imazamox 0.5× to 4× at about preflood stage, alone or 2 weeks after 1× Imazethapyr.
Source text: as §1, §2, §3

With `CCc1cnc(C2=NC(C)(C(C)C)C(=O)N2)c(C(=O)O)c1` (stereo not shown) [Imazethapyr, imazethapyr], the “% of injury 3 weeks post 3-4 leaf application” value in data set [1] was “below 10%”; in data set [2], “lower than expected”; in the data set with G654E/A205V hybrids, “no observed injury”. Further, the injury rates entry with A205V-G654E hybrids is listed as “very low injury rates”. For the same molecule, the “tolerance as compared to the A205V-G654E hybrids” value in data set [3] was “reduced tolerance”.
For `COCc1cnc(C2=NC(C)(C(C)C)C(=O)N2)c(C(=O)O)c1` (stereo not shown) [Imazamox, imazamox], the results for the injury entry in data set [4] and in data set [5] were “No injury” and “injury was observed”, respectively.

Values taken from US11877553B2, “Effects of a plurality of mutations to improve herbicide resistance/tolerance in rice” (priority 2017, dated 2024).
